Source: patent publication US12023308B2, “Agents for reversing toxic proteinopathies” (THE BROAD INSTITUTE, INC., priority 2019, dated 2024)

Key:
P cells = experiment: P cell viability upon THP treatment (live imaging, rescue); type: cell-based, human; settings: P cells
Method: To study apoptosis and cell death in N and P cells, 384 well Cell Carrier Ultra plates (6057308, Perkin Elmer), pre-coated with 0.25 mg/mL Synthemax II SC Substrate (3535, Corning) were used. […] CellEvent Caspase-3/7 Green Detection Reagent (C10423, Thermo Fisher Scientific®) and DRAQ7 (DR71000, Biostatus) were used at 1:5000 to monitor apoptosis and cell death respectively. Cells were imaged daily during 4 days to monitor viability and image analysis was performed as described below. For rescue experiments, P cells were plated on 96 well Cell Carrier Ultra microplates (6055302, Perkin Elmer) at 30,000 cells/well and cultured for 24 hr. BRD-4780 (5 μM) was applied as a pretreatment for 48 hr prior to thapsigargin exposure and throughout the experiment. Thapsigargin was applied at increasing doses and the plates were imaged daily thereafter.
For the measurement of P cell rescue from THP-induced cell death by BRD-4780 (FIGS. 3I and 3J), no dyes were added to avoid any influence on cell growth. Digital phase contrast images were used for cell identification and count, and autofluorescence in the far-red channel was used for detection of dead cells. Cells with no autofluorescence were identified and calculated as live cell.
P cells were seeded 12 hr prior to profiling compound treatment at a density of 12,000 cells/well in 384 well Cell Carrier Ultra plates (6057308, Perkin Elmer), pre-coated with 0.25 mg/mL Synthemax II SC Substrate (3535, Corning). After 24 hr, CellEvent Caspase-3/7 Green Detection Reagent (C10423, Thermo Fisher Scientific®) and DRAQ7 (DR71000, Biostatus) were added at 1:5000 final dilution in the presence or absence of thapsigargin (100 nM). Cells were imaged daily during 7 days to monitor viability. Image acquisition and analysis was done as described above and viability was assessed as fraction of live cells at day 5 of thapsigargin treatment, and at the day 6 for DMSO.

TMED9 = target: T1, TMED9 (Homo sapiens, UniProt Q9BVK6); experiment: TMED9 abundance (IF) in patient iPSC-derived kidney organoids; type: cell-based; settings: 10 μM, 72 hours
T1 construct: TMED9 abundance in P cells at escalating temperatures (as indicated) with or without treatment with BRD-4780; endogenous in cells; host or cells: P cells (intact cells treated, then heated and lysed)
T1 sequence (Q9BVK6 38-235): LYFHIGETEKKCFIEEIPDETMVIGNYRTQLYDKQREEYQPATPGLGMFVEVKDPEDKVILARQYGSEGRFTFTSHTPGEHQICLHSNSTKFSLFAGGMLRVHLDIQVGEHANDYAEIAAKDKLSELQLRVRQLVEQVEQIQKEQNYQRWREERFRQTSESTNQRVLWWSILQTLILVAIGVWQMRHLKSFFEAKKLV
Method: (§1) Kidney organoids were immersion-fixed for 15 min in 4% PFA at 4° C. and subsequently frozen in OCT using dry ice and 100% ethanol. Six […] cryostat sections (CM1950, Leica) were thaw-mounted on microscope slides (Fisherbrand™ Superfrost™ Plus, Fisher Scientific) and kept in the cryostat (at −26° C.) for the duration of the sectioning process. Prior to immunostaining, organoid sections were rinsed in PBS for 5 min, incubated for 20 min at room temperature (RT) in PBS blocking solution containing 5% normal donkey serum (530-100ML, EMD Millipore) and 1.5% Tween® 20 (P1379, Sigma-Aldrich), then incubated overnight at 4° C. with primary antibodies diluted in the same blocking solution (1:500, monoclonal Armenian hamster anti-MUC1, Ab80952, Abcam; 1:500, monoclonal Fab-A-VSH anti-fsMUC1, AbD22655.4, Bio-Rad; 1:300 monoclonal Rat anti-E Cadherin [DECMA-1], ab11512, Abcam; 1:500 polyclonal Rabbit anti-Laminin, L9393-100UL, Sigma-Aldrich; 1:500 Na/K-ATPase, ab76020, Abcam; 1:300 Fluorescein labeled Lotus Tetragonolobus Lectin (LTL), FL-1321, Vector laboratories; 1:100, polyclonal, Rabbit anti-TMED9, 21620-1-AP, Proteintech). […]

in vivo = settings: mouse
Method: 1) A pharmacokinetic study was performed by WuXi AppTec (Hong Kong) in fasted male 129S2/SvPasCrl mice (study #400565-20170331-MPK) to determine the oral bioavailability of BRD-4780. A single dose of BRD-4780 was administered at 3.0 mg/kg intravenously (i.v.) or 10.0 mg/kg orally (p.o) in a clear solution of 10% HP-β-CD in saline. Blood was collected serially from n=3 mice per dose group at eight time points post dose administration (0.25, 0.5, 1, 2, 4, 6, 8 and 24 hours) and plasma was obtained by centrifugation. Plasma drug concentration was determined by LC-MS/MS and reported as BRD-4780 ng/mL for plasma and ng/mg for kidney tissue, and plotted as the mean±standard deviation concentration (FIG. 11A). Standard pharmacokinetic parameters were calculated (FIG. 11B).

MUC1-fs [1] = experiment: MUC1-fs IF in MKD patient iPSC-derived kidney organoids; type: cell-based, human; settings: 10 μM, 72 hours, organoids P1-P3
Method: as §1
For a sequence analysis illustration, refer to FIG. 12B. […] MUC1-wt signal intensities were calculated within each WT reference region and averaged for entire section. […]

Plasma stability = type: in vitro ADME
total MUC1 mRNA = experiment: MUC1 transcription assay (RT-PCR profiling screen) in P cells; type: cell-based, human; settings: P cells, 24 hours
Method: qPCR was performed using a previously described protocol (Bittker, 2012). P cells seeded at 2000 cells/well in 384-well, clear bottom, white wall plates were grown for 24 hr, then treated with profiling compounds transferred by pinning to duplicate plates. JQ1 (250 nM) and DMSO were used for controls as above. After 24 hr, cells were washed and cDNAs were made using ABI Cells-to-Ct kit (Thermo Fisher Scientific®, Waltham, Mass.). MUC1 and HMBS delta Cp values were determined using a Roche LightCycler 480 Instrument and TaqMan probes for MUC1 FAM (4351368 assay ID Hs00159357_m1) and HMBS VIC (4448486-assay ID Hs00609297_m1) (Thermo Fisher Scientific®, Waltham, Mass.), in 5 μL reactions. The fold change effect of the compounds on total MUC1 mRNA was normalized to JQ1 and DMSO controls, as described above.

MUC1-fs [2] = experiment: MUC1-fs immunofluorescence high-content imaging assay in P cells; type: cell-based, human; settings: read-out: EC50 for removal of MUC1-fs (IF); P cells treated 48 hours
Method: Cells grown on CellCarrier-96 or -384 well Ultra microplates (PerkinElmer) were fixed 10 min in PBS containing 4% PFA (Electron Microscopy Sciences), permeabilized 15 min in 0.5% Triton X100 (X100-100ML, Sigma-Aldrich), blocked for 1 hr in blocking reagent (100 mM Tris HCL pH8; 150 mM NaCL; 5 g/L Blocking Reagent [11096176001, Roche]) and treated for 1 hr with primary antibodies diluted in blocking reagent (1:500, monoclonal Fab-A-VSH anti-fsMUC1, AbD22655.2, Bio-Rad; 1:2000, monoclonal Mouse anti-MUC1 (CD227), 60137, Stemcell Technologies; 1:200, polyclonal, Mouse anti-GM130, ab169276, Abcam; 1:100, polyclonal, Rabbit anti-TMED9, 216201-AP, Proteintech; 1:800, polyclonal, Rabbit anti-SEC31A, 17913-1-AP, Proteintech; 1:400, monoclonal, Rabbit anti-EEA1 (C45B10), 3288S, Cell signaling technology; 1:100, polyclonal, Rabbit anti-ERGIC-53, E1031, Sigma-Aldrich; 1:400, monoclonal, Mouse anti-LAMP1 (D401S), 15665, Cell signaling technology; 1:1000, polyclonal, Rabbit anti-Calnexin, ab22595, Abcam; 1:2000, monoclonal, Rabbit anti-GM130 (D6B1) XP, 12480, Cell signaling technology; 1:200, monoclonal, Rabbit anti TNG46, ab50595, Abcam; 1:100, monoclonal, Rabbit anti-Rab7 (D95F2) XP, 9367, Cell signaling technology; 1:100, monoclonal, Rabbit anti-Rab11 (D4F5) XP, 5589, Cell signaling technology). Fixed, stained cells were washed three times in PBS and incubated for 1 hr with secondary antibodies in blocking solution (1:500, Alexa Fluor 488® Goat anti-Mouse IgG, A-11029, Thermo Fisher Scientific®; 1:500, Alexa Fluor 647® F(ab′)2-Goat anti-Rabbit IgG, A21246, Thermo Fisher Scientific®; 1:2000, Hoechst 33342, H3570, Thermo Fisher Scientific®), then washed three times in PBS and imaged.
Cell nuclei were first identified using Hoechst staining, and cell number was calculated. Cytoplasmic regions were then detected around each nucleus based on combined channels. The cells from the edge of the field were eliminated from the analysis. For the quantification of protein abundance, the total signal intensity value for each antibody was calculated separately in the cell cytoplasm and the average signal per cell was calculated for each well.
P cells were seeded 24 hr prior to compound treatment at a density of 12,000 cells/well in 384 well Cell Carrier Ultra plates (6057308, Perkin Elmer), pre-coated with 0.25 mg/mL Synthemax II SC Substrate (3535, Corning). Compounds of the repurposing library set (Corsello et al., 2017) were used at 5 doses (35, 3.5, 0.35, 0.035 and 0.0035 μM) for the primary screen and 10 doses (16, 5.6, 1.8, 0.6, 0.21, 0.07, 0.02, 0.008, 0.002 and 0.0008 μM) for the following screens. The compounds, in two replicates, were transferred from compound source plates to the cell plates using the HighRes Pin Tool. […] After 48 hr incubation, cells were fixed for 20 min in 4% PFA (Electron Microscopy Sciences) in PBS, washed twice, then permeabilized (10 min) with 0.5% Triton-X100 (X100-100ML, Sigma-Aldrich) in PBS and washed once more. Cells were blocked for 10 min at RT with Blocking solution (100 mM Tris HCL pH8; 150 mM NaCL; 5 g/L Blocking Reagent [11096176001, Roche]), then incubated 90 min at RT with one of the following primary antibodies in Roche Blocking solution: 1:500, monoclonal Fab-A-VSH anti-MUC1-fs, AbD22655.2, Bio-Rad; 1:2000, monoclonal mouse anti-MUC1 (214D4), 05-652-KC, Millipore; 1:1000, monoclonal, Rabbit anti-GM130 (D6B1) XP, 12480, Cell signaling technology. […]

With `CC(C)[C@@H]1[C@H]2CC[C@H](C2)[C@H]1N` (racemic) [BRD-4780, 2-endo-amino-3-exo-isopropylbicyclo[2.2.1]heptane] the “rescue from THP-induced cell death” value (P cells) was “rescued P cells from THP-induced cell death”, the “TMED9 abundance in patient organoids” value (TMED9) was “reduced TMED9 to levels comparable to cells in N1 organoids” and the bioavailability (in vivo; male, 129S2/SvPasCrl) was 119%. The “oral bioavailability (in words)” value (in vivo; po) was “excellent oral bioavailability”, the “MUC1-fs protein in patient kidney organoids” value (MUC1-fs [1]) was “cleared the mutant protein from intracellular compartments in all patient organoids” and the plasma stability (Plasma stability) was “good microsomal and plasma stability”. The “effect on MUC1 transcriptional regulation” value (total MUC1 mRNA) was “no effect on MUC1 transcriptional regulation” and the EC50 (MUC1-fs [2]) was 143 nM.
